The text below walks through data of BindingDB's records for doi:10.1021/jm800588x (Eberhard Karls University Tuebingen, 2008).

Structures are written as SMILES.

The target of one assay is T1, Polyunsaturated fatty acid 5-lipoxygenase (Homo sapiens, UniProt P09917).
T1 sequence (P09917 whole entry): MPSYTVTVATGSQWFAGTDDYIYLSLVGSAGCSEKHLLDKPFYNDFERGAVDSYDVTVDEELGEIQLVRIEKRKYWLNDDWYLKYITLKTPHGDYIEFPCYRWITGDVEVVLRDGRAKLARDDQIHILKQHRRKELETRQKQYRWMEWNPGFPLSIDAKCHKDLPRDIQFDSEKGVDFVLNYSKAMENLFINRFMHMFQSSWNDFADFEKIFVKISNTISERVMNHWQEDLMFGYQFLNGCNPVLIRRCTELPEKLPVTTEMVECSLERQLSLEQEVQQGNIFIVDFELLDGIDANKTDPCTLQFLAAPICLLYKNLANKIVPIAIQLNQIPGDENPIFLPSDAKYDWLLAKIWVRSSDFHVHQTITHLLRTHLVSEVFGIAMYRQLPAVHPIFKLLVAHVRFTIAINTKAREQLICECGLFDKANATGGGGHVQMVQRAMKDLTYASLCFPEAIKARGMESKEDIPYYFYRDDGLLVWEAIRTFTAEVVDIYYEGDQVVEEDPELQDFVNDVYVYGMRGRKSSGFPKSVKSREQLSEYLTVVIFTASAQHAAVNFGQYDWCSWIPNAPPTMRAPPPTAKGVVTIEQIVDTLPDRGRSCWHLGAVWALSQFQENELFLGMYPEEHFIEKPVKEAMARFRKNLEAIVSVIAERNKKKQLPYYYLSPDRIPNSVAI
Kind of assay: Determination of 5-LO Product Formation in Cell-Free Systems (IC50). The conditions noted are these: pH 7.4; 37 °C. The procedure: For determination of the activity of 5-LO in 100000g supernatants, aliquots of the supernatants were added to reaction mix, and were preincubated with the test compounds before arachidonic acid was added to start 5-LO product formation. Formed 5-LO metabolites were extracted and analyzed by HPLC. 5-LO product includes LTB4 and its all-trans isomers, and 5(S)-hydro(pero)xy-6-trans- 8,11,14-cis-eicosatetraenoic acid. IC50s are expressed as mean +/- SE, obtained from measurements at 4-5 different concentrations of test compounds, and determined using Graphpad Instat (Graphpad Software Inc., San Diego, CA). EC50/IC50 values were obtained from product formation in PMNL intact cells.
A word on the EC50: it is the midpoint of the concentration-response curve. High values mean weaker potency, low ones greater potency. The compound `CCCCCCC(Sc1nc(Cl)cc(NCc2ccc3ncccc3c2)n1)C(=O)OCC` (stereo not given) [ethyl 2-({4-chloro-6-[(quinolin-6-ylmethyl)amino]pyrimidin-2-yl}sulfanyl)octanoate] came in with a concentration for a half-maximal effect (EC50) of 37 µM.
Same read-out and setting: to `CCCCCCC(Sc1nc(Cl)cc(Nc2ccc3ncccc3c2)n1)C(=O)OCC` (stereo not given) [ethyl 2-{[4-chloro-6-(quinolin-6-ylamino)pyrimidin-2-yl]sulfanyl}octanoate] belongs 19 µM.

Another assay addresses T1, Polyunsaturated fatty acid 5-lipoxygenase. The experiment in a line: Determination of 5-LO Product Formation in Intact Cells (EC50/IC50). Particulars: pH 7.4; 37 °C. The procedure:
For assays of intact cells, 5000,000 freshly isolated PMNL cells were resuspended in PGC buffer. After preincubation with the test compounds for 15 min at RT, 5-LO product formation was started by addition of ionophore A23187 plus arachidonic acid. Formed 5-LO metabolites were extracted and analyzed by HPLC. 5-LO product formation is expressed as ng of 5-LO products per 1000,000 cells, which includes LTB4 and its all-trans isomers, and 5(S)-hydro(pero)xy-6-trans- 8,11,14-cis-eicosatetraenoic acid.
Consider `CCCCCCC(Sc1nc(Cl)cc(Nc2cccc(C)c2C)n1)C(=O)O` (stereo not given) [2-({4-chloro-6-[(2,3-dimethylphenyl)amino]pyrimidin-2-yl}sulfanyl)octanoic acid], for which a half-maximal effect (EC50) was put at 4.1 µM.
Compound `O=C(O)CSc1nc(Cl)cc(Nc2cccc3c2CCC3)n1` [2-{[4-chloro-6-(2,3-dihydro-1H-inden-4-ylamino)pyrimidin-2-yl]sulfanyl}acetic acid] returned an EC50 of 3.9 µM.
The same measure, in the same setting: the same measure for `CCOC(=O)C(Sc1nc(Cl)cc(Nc2cccc(C)c2C)n1)c1ccccc1` (stereo not given) [ethyl 2-({4-chloro-6-[(2,3-dimethylphenyl)amino]pyrimidin-2-yl}sulfanyl)-2-phenylacetate]: 1.8 µM; for `CCOC(=O)CSc1nc(Cl)cc(Nc2cccc3c2CCC3)n1` [ethyl 2-{[4-chloro-6-(2,3-dihydro-1H-inden-4-ylamino)pyrimidin-2-yl]sulfanyl}acetate]: 3.2 µM.
Same read-out and setting: to `CCOC(=O)C(Sc1nc(Cl)cc(Nc2ccc3ncccc3c2)n1)c1ccccc1` (stereo not given) [ethyl 2-{[4-chloro-6-(quinolin-6-ylamino)pyrimidin-2-yl]sulfanyl}-2-phenylacetate] belongs 1.2 µM; to `CCOC(=O)CSc1nc(Cl)cc(Nc2ccc3ncccc3c2)n1` [ethyl 2-{[4-chloro-6-(quinolin-6-ylamino)pyrimidin-2-yl]sulfanyl}acetate], 2.6 µM.
Still for that read-out and setting: to `CCCCC(Sc1nc(Cl)cc(Nc2ccc3ncccc3c2)n1)C(=O)OCC` (stereo not given) [ethyl 2-{[4-chloro-6-(quinolin-6-ylamino)pyrimidin-2-yl]sulfanyl}hexanoate] belongs 1.1 µM; to `CCCCCCC(Sc1nc(Cl)cc(Oc2ccc3ncccc3c2)n1)C(=O)OCC` (stereo not given) [ethyl 2-{[4-chloro-6-(quinolin-6-yloxy)pyrimidin-2-yl]sulfanyl}octanoate], 1.7 µM.
